We go through three compounds from patent US20020137054A1, “AXOR35, a G-protein coupled receptor” (SmithKline Beecham Corporation & SmithKline Beecham plc, priority 1999, published 2002).

In data set [1] the target is T1, AXOR35 (Homo sapiens, UniProt Q9H3N8). Particulars: histamine challenge of control cells transiently expressing AXOR35. On the procedure:
Prior to challenge with histamine, cells transiently expressing AXOR35 are treated with increasing concentrations of test compound. […] Antagonist activity is calculated as the concentration of test compound required to inhibit 50% of a maximum histamine response (IC50).

Data set [2] addresses T1, AXOR35. Particulars: calcium mobilization response, method analogous to Example 8. For orientation: Calcium assays in cells follow changes in intracellular calcium, usually with a dye or a luminescent sensor.

Each structure is given as a SMILES string. Where a name gives a salt, the structure may show the parent alone.

T1 sequence (Q9H3N8 whole entry): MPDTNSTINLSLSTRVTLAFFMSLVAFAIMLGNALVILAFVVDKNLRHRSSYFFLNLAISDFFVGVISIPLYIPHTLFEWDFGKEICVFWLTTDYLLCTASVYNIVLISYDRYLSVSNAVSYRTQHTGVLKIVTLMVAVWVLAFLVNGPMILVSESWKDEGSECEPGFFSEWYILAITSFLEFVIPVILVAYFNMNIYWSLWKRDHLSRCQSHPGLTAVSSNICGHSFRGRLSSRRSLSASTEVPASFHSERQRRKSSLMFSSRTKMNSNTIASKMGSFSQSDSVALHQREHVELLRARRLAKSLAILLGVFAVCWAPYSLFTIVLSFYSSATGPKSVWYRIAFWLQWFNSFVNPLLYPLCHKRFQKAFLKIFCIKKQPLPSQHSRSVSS

In turn, `NCC(Cc1ccc(Cl)cc1)c1c[nH]cn1` (stereo not shown) (as salt: hydrochloride) displayed a melting point of 254 to 256 °C. Same read-out and setting: in the case of `NCC(c1ccccc1)c1cnc[nH]1` (stereo not shown) (as salt: hydrochloride) it was 264 to 266 °C. With `NCCc1c[nH]cn1` [histamine, 1H-imidazole-4-ethanamine], at AXOR35 [1], the 80% effect concentration (EC80) was 100 nM. Moreover, the “ligand for AXOR35” value at AXOR35 [2] is given as “ligands for AXOR35”.

One may read the melting point as the temperature of the solid-liquid transition. As usually defined, the EC80 is the point of the concentration-response curve where the effect stands at 80%. A lower EC80 goes with greater potency.
